Experimental data published in PubChem BioAssay (NCI).
Where “and” joins values, the source holds several entries; their conditions need not be identical. Equal values may be shown once.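 1) Cells in 96-well plates. 2) Compound, 48 h, 5 concentrations. 3) Linear interpolation between surrounding doses. 4) Unreached endpoint = highest concentration. GI50: concentration for 50% inhibition of growth. TGI marks complete inhibition of growth.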

What was measured:
Test in all cases: DTP human tumour cell line panel, 48 h
A549 NSCLC = test system: A549 NSCLC
ACHN renal = test system: ACHN renal
HOP-92 NSCLC = test system: HOP-92 NSCLC
KM12 colon = test system: KM12 colon
M14 melanoma = test system: M14 melanoma
MDA-MB-231 breast = test system: MDA-MB-231 breast
MDA-N = test system: MDA-N
NCI-H23 lung = test system: NCI-H23 lung
OVCAR-4 ovarian = test system: OVCAR-4 ovarian
OVCAR-8 ovarian = test system: OVCAR-8 ovarian
PC-3 prostate = test system: PC-3 prostate
RPMI-8226 leukemia = test system: RPMI-8226 leukemia
SK-MEL-2 melanoma = test system: SK-MEL-2 melanoma
SW-620 colon = test system: SW-620 colon

SMILES	TGI (A549 NSCLC)	TGI (ACHN renal) [µM]	TGI (HOP-92 NSCLC) [µM]	TGI (KM12 colon)	TGI (M14 melanoma)	TGI (MDA-MB-231 breast)	TGI (MDA-N)	TGI (NCI-H23 lung) [µM]	TGI (OVCAR-4 ovarian) [µM]	TGI (OVCAR-8 ovarian) [µM]	TGI (PC-3 prostate) [µM]	TGI (RPMI-8226 leukemia) [µM]	TGI (SK-MEL-2 melanoma) [µM]	TGI (SW-620 colon)	GI50 (HOP-92 NSCLC) [µM]	GI50 (KM12 colon)	GI50 (MDA-N)	GI50 (OVCAR-8 ovarian)	GI50 (PC-3 prostate)	GI50 (SK-MEL-2 melanoma)
Cc1cc(Cl)ccc1NC(=O)/C(Cc1nc2ccc(C(=O)c3ccccc3)cc2[nH]c1=O)=N/NC(=O)c1ccncc1	> 100 µM	> 100	> 100	> 100 µM	> 100 µM	> 100 µM	> 100 µM	> 100	> 100	> 100	> 100	> 100	> 100	> 100 µM	–	–	–	–	–	–
COc1ccc(OC)c2sc(N3C(=O)/C(=C/c4ccc(N(C)C)cc4)N=C3c3ccccc3)nc12	> 100 µM	> 100	> 100	> 100 µM	> 100 µM	> 100 µM	61.3 µM	–	> 100	> 100	81.2	> 100	> 100	> 100 µM	–	–	–	–	–	–
Cc1cccc2c1CC(C1OC(=O)c3c(C)cccc31)C2=O (stereo not given)	> 100 µM	> 100	> 100	> 100 µM	> 100 µM	> 100 µM	> 100 µM	> 100	> 100	> 100	> 100	> 100	> 100	> 100 µM	–	–	–	–	–	–
COc1ccc2c(c1OC)C(Br)CCC(Br)(Br)C2=O (stereo not given)	29 µM	3.81	9.44	32.2 µM	18.3 µM	29.9 µM	14.2 µM	22.8	18.9	21.9	24.2	26.1	28	6.61 µM	–	–	–	–	–	–
O=C(c1c(F)c(F)c(F)c(F)c1F)n1c(=O)[nH]c2ccccc21	32.5 µM	29.7	11.4	5.15 µM	22.1 µM	26.8 µM	20.5 µM	11.4	31.8	27	21.8	25.1	17.5	16.1 µM	–	–	–	–	–	–
CCCCC1=C(C(=O)N2CCOCC2)C2(OCCO2)C1Cl (stereo not given)	48.9 µM	52.1	> 100	41.5 µM	33.9 µM	> 100 µM	39.7 µM	> 100	> 100	> 100	> 100	–	51.6	89.5 µM	–	–	–	–	–	–
CC[C@@]1(O)C(=O)OCc2c1cc1n(c2=O)Cc2c-1nc1ccccc1c2C=Nc1ccc(N[C@@H]2c3cc4c(cc3[C@@H](c3cc(OC)c(O)c(OC)c3)[C@H]3C(=O)OC[C@@H]32)OCO4)cc1	15.6 µM and 1.84 µM	0.0374	–	> 44.3 µM and 6.24 µM	0.742 µM and 0.253 µM	18.4 µM and 4.06 µM	27.6 µM and 3.4 µM	0.133	> 56	0.263	> 100	–	–	55.7 µM and > 100 µM	0.0258	1.69 µM and 0.269 µM	0.351 µM and 0.0613 µM	0.0264 µM and 0.016 µM	0.822 µM and 0.0864 µM	2.5 µM and 0.535 µM
C=C[C@@]1(C)CC(=O)[C@]2(O)[C@@]3(C)[C@@H](OC(C)=O)CCC(C)(C)[C@@H]3[C@H](O)[C@H](OC(C)=O)[C@@]2(C)O1	> 100 µM	> 100	> 100	> 100 µM	> 100 µM	> 100 µM	> 100 µM	> 100	> 100	> 100	> 100	–	> 100	> 100 µM	–	–	–	–	–	–
COc1ccc(-c2cc(-c3ccccc3)c3c(n2)-c2ccccc2NC(=O)C3)cc1	> 100 µM	> 100	> 100	> 100 µM	> 100 µM	> 100 µM	> 100 µM	> 100	> 100	30.1	> 100	> 100	> 100	> 100 µM	–	–	–	–	–	–
CCOC(=O)CCN1C(=O)c2ccc(NC(=O)C(=O)O)cc2S1(=O)=O	> 100 µM	> 100	> 100	> 100 µM	> 100 µM	> 100 µM	> 100 µM	> 100	> 100	> 100	> 100	> 100	> 100	> 100 µM	–	–	–	–	–	–
COc1ccccc1/[N+]([O-])=C/c1ccccc1OC(=S)S	> 100 µM	> 100	61.8	> 100 µM	> 100 µM	> 100 µM	35.9 µM	> 100	> 100	66.2	> 100	63.7	80.2	> 100 µM	–	–	–	–	–	–
CC1=NN(c2cccc(Cl)c2)C(=N/c2nc3ccccc3s2)/C1=C\c1ccccc1O	–	74.3	83.5	> 100 µM	> 100 µM	64.4 µM	93.5 µM	70.1	> 100	> 100	48.7	> 100	40.3	> 100 µM	–	–	–	–	–	–
COP(=N[Si](C)(C)C)(OC)OC	> 100 µM	> 100	> 100	> 100 µM	> 100 µM	> 100 µM	> 100 µM	> 100	> 100	> 100	> 100	> 100	> 100	> 100 µM	–	–	–	–	–	–
Cc1nc2ccc(S(=O)(=O)Nc3ccccn3)cc2c(=O)n1NS(=O)(=O)c1ccccn1	–	> 100	> 100	> 100 µM	> 100 µM	> 100 µM	> 100 µM	> 100	> 100	> 100	> 100	> 100	> 100	> 100 µM	–	–	–	–	–	–
O=c1oc2ccccc2cc1-c1nc2ccccc2c(=O)[nH]1	> 100 µM	> 100	> 100	> 100 µM	> 100 µM	> 100 µM	> 100 µM	–	> 100	> 100	> 100	> 100	> 100	> 100 µM	–	–	–	–	–	–
